Data taken from patent publication EP0378755B1, “Heterocyclically substituted alpha-aryl acryl acid methyl esters and their use” (BASF Aktiengesellschaft, priority 1988, dated 1990).

Key:
Format in all cases: in vivo
Prodenia litura = Prodenia litura feeding test on dipped maize pieces; conditions: after 24 h
Protocol: Prodenia litura, ägypt. Baumwollwurm
Die Versuche wurden in 250 ml Plastikbechern durchgeführt. Dabei setzte man 2 Raupen in die Gefäße und bot Stücke von Maispflanzen, die man für 5 Sekunden in die wäßrige Wirkstoffaufbereitung getaucht hatte, als Futter an. Wirkstoffgehalt in ppm. Nach 24 Stunden beurteilte man die Mortalitätsrate in %.

Musca domestica = Musca domestica continuous contact test in glass dish; conditions: after 4 h
Protocol: Musca domestica (Stubenfliegen)
Versuchsart: Dauerkontakt
Beide Teile einer Glasschale von 10 cm Durchmesser wurden mit insgesamt 1 ml der acetonischen Lösung der Wirkstoffe benetzt. Wirkstoffgehalt der Lösung in ppm. Nach Verdunsten des Lösungsmittels brachte man je 10 Fliegen in die Schalen, schloß sie und zählte nach 4 Stunden die Tiere, die sich in Rückenlage befanden und bestimmte die Mortalitätsrate in %.

Plutella maculipennis = Plutella maculipennis contact test on dipped cabbage leaves; conditions: after 48 h, 4th instar larvae
Protocol: Plutella maculipennis (Kohlschabe)
(§1) Versuchsart: Kontaktwirkung
Junge Kohlblätter wurden 3 sec. in die wäßrige Aufbereitung der Prüfsubstanz getaucht (Wirkstoffgehalt in ppm) und auf einen mit 0,5 ml Wasser angefeuchteten Rundfilter (Φ 9 cm) in eine Glasschale gelegt (Φ 10 cm). Darauf wurde das Blatt mit 10 Raupen im 4. Larvenstadium besetzt und die Glasschale geschlossen. Nach 48 Stunden beurteilte man die Mortalität in %.

Ornithodorus moubata = Ornithodorus moubata (tick) contact test by dipping; conditions: after 48 h, ca. 25°C
Text: Ornithodorus moubata (Zecke)
as §1
Verwendet wurden junge Zecken, die eine Blutmahlzeit hinter sich hatten (Durchmesser 1,5 bis 2 mm). Diese Tiere nahm man mit Hilfe eines Saugrohres einzeln auf, wobei eine starke Lichtquelle die aktiven Tiere aus den Häutungsresten trieb. Je 5 Zecken wurden in einem Papierbeutel für 5 Sekunden in die wäßrige Wirkstoffaufbereitung getaucht (Wirkstoffgehalt in ppm). Die Beutel hing man danach frei auf und ermittelte nach 48 Stunden die Wirkung. Dabei wurden die Beutel an eine starke Lichtquele (60 W-Birne) gehalten; die lebenden Tiere versuchten auszuweichen und waren leicht zu erkennen. Die Versuchstemperatur betrug ca. 25°C. Man bestimmte die Mortalität in %.

Tetranychus telarius = Tetranychus telarius contact test, spray test on bush beans; conditions: 120 h, after 5 days
Protocol: Tetranychus telarius, Rote Spinne, Kontaktwirkung, Spritzversuch
Buschbohnen in Töpfen, die das zweite Blattpaar zeigen, werden mit der wäßrigen Wirkstoffaufbereitung tropfnaß gespritzt. Die Pflanzen werden von allen Seiten mit insgesamt 50 ml Spritzbrühe besprüht. Die Pflanzen weisen einen starken Milbenbefall und reichliche Eiablage auf.
Die Wirkung wird nach 5 Tagen mittels Binokular ermittelt. Dabei wird darauf geachtet, ob alle Entwicklungsstadien der Tiere gleichmäßig erfaßt sind. Die Pflanzen stehen während der 5 Tage unter normalen Gewächshausbedingungen.

Plasmopara viticola = assay: Efficacy against Plasmopara viticola on potted vine leaves, protective spray; conditions: 0,0125 gew.%ige Spritzbrühe; vines "Müller Thurgau"; infected 8 days after spraying
Text: Wirksamkeit gegen Plasmopara viticola
Blätter von Topfreben der Sorte "Müller Thurgau" wurden mit wäßriger Spritzbrühe, die 80 % Wirkstoff und 20 % Emulgiermittel in der Trockensubstanz enthielt, besprüht. Um die Wirkungsdauer der Wirkstoffe beurteilen zu können, wurden die Pflanzen nach dem Antrocknen des Spritzbelages 8 Tage im Gewächshaus aufgestellt. Erst dann wurden die Blätter mit einer Zoosporenaufschwemmung von Plasmopara viticola (Rebenperonospora) infiziert. Danach wurden die Reben zunächst für 48 Stunden in einer wasserdampfgesättigten Kammer bei 24°C und anschließend für 5 Tage in einem Gewächshaus mit Temperaturen zwischen 20 und 30°C aufgestellt. Nach dieser Zeit wurden die Pflanzen zur Beschleunigung des Sporangienträgerausbruches abermals für 16 Stunden in der feuchten Kammer aufgestellt. Dann erfolgte die Beurteilung des Ausmaßes des Pilzausbruches auf den Blattunterseiten.

Pyrenophora teres = assay: Efficacy against Pyrenophora teres on barley seedlings, protective spray; conditions: 0,0125 gew.%ige Spritzbrühe; barley "Igri"; inoculated 24 h after spraying
Protocol: Wirksamkeit gegen Pyrenophora teres
Gerstenkeimlinge der Sorte "Igri" wurden im Zweiblattstadium mit wäßrigen Suspensionen, die 80 % Wirkstoff und 20 % Emulgator in der Trockensubstanz enthielten, tropfnaß gespritzt. Nach 24 Stunden wurden die Pflanzen mit einer Sporensuspension des Pilzes Pyrenophora teres inokuliert und für 48 Stunden in eine Klimakammer mit hoher Luftfeuchtigkeit bei 18°C gestellt. Anschließend wurden die Pflanzen im Gewächshaus bei 20 bis 22°C und 70 % relativer Luftfeuchtigkeit für weitere 5 Tage kultiviert. Dann wurde das Ausmaß des Befalls ermittelt.

Septoria nodorum = assay: Efficacy against Septoria nodorum on wheat plants, protective spray; conditions: 0,05 gew.%ige Spritzbrühe; wheat "Frühgold"; inoculated 20 h after spraying, assessed after one week
Protocol: Wirksamkeit gegen Septoria nodorum
Weizenpflanzen der Sorte "Frühgold" wurden im Ein-Blatt-Stadium mit wäßriger Wirkstoffaufbereitung, die 80 % Wirkstoff und 20 % Emulgiermittel in der Trockensubstanz enthielt, bis zur Tropfnässe besprüht. 20 Stunden nach dem Antrocknen des Spritzbelages wurden die Pflanzen mit einer wäßrigen Sporensuspension von Septoria nodorum bis zur Tröpfchenbildung inokuliert und für eine Woche in eine Klimakammer bei Temperaturen zwischen 17 und 19°C und einer relativen Luftfeuchtigkeit von ungefähr 90 bis 95 % gestellt. Dann wurde das Ausmaß der Symptomentwicklung ermittelt.

COC=C(C(=O)OC)c1ccccc1C=Cc1ccc(Cl)cc1 [A, 2-(β-Methoxy-α-methoxycarbonylvinyl)-4'-chlor-stilben]
mortality at 1000 ppm (Prodenia litura): 0% | mortality at 2 ppm (Musca domestica): 0% | mortality at 1000 ppm (Plutella maculipennis): 0% | % Mort. (Ornithodorus moubata; 1000 ppm): 0%

COC=C(C(=O)OC)c1ccccc1Oc1nc2ccccc2o1 [B, α-[2-(Benzoxazol-2'-yl-oxy)-phenyl]-β-methoxy-acrylsäuremethylester]
mortality at 1000 ppm (Prodenia litura): 80% | mortality at 4 ppm (Musca domestica; 4 ppm): 80% | mortality at 200 ppm (Plutella maculipennis; 200 ppm): 0% | mortality at 1000 ppm (Plutella maculipennis): 80% | % Mort. (Ornithodorus moubata; 1000 ppm): 0% | mortality at 1000 ppm (Tetranychus telarius; 1000 ppm): 0%

COC=C(C(=O)OC)c1ccccc1Oc1cncc(Cl)n1 [C, α-2-(6-Chlorpyrazin-2-oxy)-phenyl-β-methoxy-acrylsäuremethylester, reference compound]
fungizide Wirkung (Plasmopara viticola): 60% | fungizide Wirkung (Pyrenophora teres): 55%

CO/C=C(/C(=O)OC)c1ccccc1/C=C/c1ccn(-c2ccc(Cl)cc2)c1 [Verbindung Nr. 4, Alpha-2-[2'-(N-para-Chlorphenyl-pyrrol-3''-yl)-ethen-1'-yl]-phenyl-β-methoxy-acrylsäuremethylester]
fungizide Wirkung (Septoria nodorum): 95% | mortality at 40 ppm (Prodenia litura; 40 ppm): 100% | mortality at 2 ppm (Musca domestica): 100% | mortality at 100 ppm (Plutella maculipennis; 100 ppm): 100% | % Mort. (Ornithodorus moubata; 400 ppm): 80%

COC=C(C(=O)OC)c1ccccc1C=Cc1cc(C2CC2)no1 [Verbindung Nr. 42, Alpha-2-[2′-(3˝-Cyclopropyl-isoxazol-5˝-yl)-ethen-1′-yl]-phenyl-β-methoxy-acrylsäuremethylester]
fungizide Wirkung (Plasmopara viticola): 95%

CO/C=C(/C(=O)OC)c1ccccc1/C=C/c1cnn(-c2ccc(C)cc2)c1 [compound 30]
fungizide Wirkung (Plasmopara viticola): 95% | fungizide Wirkung (Septoria nodorum): 95% | fungizide Wirkung (Pyrenophora teres): 95%

CO/C=C(/C(=O)OC)c1ccccc1/C=C/c1cnn(-c2ccc(Cl)cc2)c1 [compound 31]
fungizide Wirkung (Plasmopara viticola): 95% | fungizide Wirkung (Septoria nodorum): 95% | fungizide Wirkung (Pyrenophora teres): 95%

CO/C=C(/C(=O)OC)c1ccccc1/C=C/c1cc(C(C)C)no1 [compound 41]
fungizide Wirkung (Septoria nodorum): 95% | % Mort. (Ornithodorus moubata; 1000 ppm): 80% | mortality at 100 ppm (Tetranychus telarius): 100%

CO/C=C(/C(=O)OC)c1ccccc1/C=C/c1cc(-c2ccc(C)cc2)no1 [compound 45]
fungizide Wirkung (Plasmopara viticola): 95% | fungizide Wirkung (Pyrenophora teres): 95% | % Mort. (Ornithodorus moubata; 1000 ppm): 60% | mortality at 40 ppm (Tetranychus telarius; 40 ppm): 80%

CO/C=C(/C(=O)OC)c1ccccc1/C=C/c1cc(-c2ccc(C#N)cc2)no1 [compound 46]
fungizide Wirkung (Plasmopara viticola): 95% | fungizide Wirkung (Pyrenophora teres): 95% | mortality at 400 ppm (Tetranychus telarius; 400 ppm): 100%

CO/C=C(/C(=O)OC)c1ccccc1/C=C/c1nnc(C(C)C)o1 [compound 69]
fungizide Wirkung (Septoria nodorum): 95% | fungizide Wirkung (Pyrenophora teres): 95%

CO/C=C(/C(=O)OC)c1ccccc1/C=C/c1nc(-c2ccc(Cl)cc2)no1 [compound 84]
fungizide Wirkung (Septoria nodorum): 95% | fungizide Wirkung (Pyrenophora teres): 95%

CO/C=C(/C(=O)OC)c1ccccc1/C=C/c1cnn(-c2ccc(F)cc2)c1 [compound 98]
fungizide Wirkung (Plasmopara viticola): 95% | fungizide Wirkung (Septoria nodorum): 95% | fungizide Wirkung (Pyrenophora teres): 95%

CO/C=C(/C(=O)OC)c1ccccc1/C=C/c1cnn(-c2ccc(Br)cc2)c1 [compound 99]
fungizide Wirkung (Plasmopara viticola): 95% | fungizide Wirkung (Septoria nodorum): 95% | fungizide Wirkung (Pyrenophora teres): 95%

CO/C=C(/C(=O)OC)c1ccccc1/C=C/c1cc(C)no1 [compound 100]
fungizide Wirkung (Plasmopara viticola): 95% | fungizide Wirkung (Pyrenophora teres): 95%

CO/C=C(/C(=O)OC)c1ccccc1/C=C/c1cc(-c2ccccc2)no1 [compound 101]
fungizide Wirkung (Plasmopara viticola): 95% | % Mort. (Ornithodorus moubata; 1000 ppm): 60% | mortality at 100 ppm (Tetranychus telarius): 100%

CO/C=C(/C(=O)OC)c1ccccc1/C=C/c1cc(-c2c(F)cccc2Cl)no1 [compound 102]
fungizide Wirkung (Plasmopara viticola): 95% | fungizide Wirkung (Septoria nodorum): 95% | fungizide Wirkung (Pyrenophora teres): 95%
